From US5444056A, “Aminoalkoxyphenyl derivatives, process for their preparation and compositions containing them” (Sanofi, priority 1989, dated 1995)
Where a name gives a salt, the structure may show the parent alone.

Key:
[1] = test system: contractile response to potassium-induced depolarization on isolated rat aorta; assay: Calcium inhibitory properties: antagonism of contractile response to potassium-induced depolarization on isolated rat aorta; parameters: species or system rat (male Wistar); settings: percent of maximal contraction before incubation, 60 min
Description: It is well established that the depolarization of a smooth muscle membrane by potassium makes the latter permeable to extracellular calcium and induces muscle contraction. Consequently, the measurement of inhibition of the contractile response to depolarization by potassium or the measurement of relaxation of the tonic contraction on potassium depolarization can provide an evaluation of the potency of a compound as an inhibitor of the membrane permeability to Ca^++ ions. The technique used is the following: The aorta is removed from male Wistar rats weighing about 300 g and cut into strips approximately 40 mm long and 3 mm wide. These fragments are placed in a 25 ml isolated organ bath containing modified Krebs-bicarbonate solution (112 mM NaCL; 5 mM KCl; 25 mM NaHCO3; 1 mM KH2 PO4; 1.2 mM MgSO4; 2.5 mM CaCl2; 11.5 mM glucose, made up to 1000 ml with distilled water) maintained at 37° C. and through which a stream of carbon dioxide is passed. The preparation is connected to a force microsensor and the contractile response is recorded after amplification on a recorder. A tension of 2g is applied to the preparation. This latter is maintained in the modified Krebs-bicarbonate solution for 60 minutes, and then contractions are induced by replacing the Krebsbi-carbonate solution by a Krebs-potassium solution (17 mM NaCl; 100 mM KCl; 25 mM NaHCO3; 1 mM KH2 PO4; 1.2 mM MgSO4; 2.5 mM CaCl2; 11.5 mM glucose; made up to 1000 ml with distilled water). When the contractile response of the preparation has become reproducible, a given amount of the compound of the invention is introduced into the bath. Sixty minutes later a new spasm is induced by potassium depolarization. The results obtained on the aorta under investigation are then expressed in percent of the maximal contractional effect before incubation with the test substance. As examples, the following results were obtained, the compounds of formula (1) being in the form of the free base, the hydrochloride, oxalate or fumarate.

[2] = test system: increase in blood pressure induced by epinephrine (anti-α effect); assay: Anti-α effect: reduction of epinephrine-induced increase in blood pressure in anesthetized atropinized dog; format: in vivo; parameters: key: +: for a reduction <50%; ++: for a reduction ≥50%; +++: for an almost complete reduction
Method: The aim of this test is to determine the capacity of the compounds of the invention to reduce the increase in blood pressure induced by epinephrine (anti-αeffect) and the acceleration of the heart rate induced by isoprenaline (anti-βeffect) in the dog previously anesthetized with pentobarbital and atropinized. First, are determined for each dog the dose of epinephrine (between 3 and 10 μg/kg) which causes a reproducible increase in arterial blood pressure of about 133.10^2 Pa and the dose of isoprenaline (1 to 2 μg/kg) which causes a reproducible increase in the heart rate of about 70 beats/minute. The doses of epinephrine and isoprenaline thus determined are injected alternatively every ten minutes and after the two consecutive reference responses have been obtained, a quantity of the test compound is administered by the intravenous route. The percentage reduction of the hypertension caused by the test compound in comparison with the reference hypertension previously obtained (about 100 mm Hg) is recorded. In both cases, the results of the reduction in arterial pressure and heart rate are expressed as follows: […]

[3] = test system: acceleration of the heart rate induced by isoprenaline (anti-β effect); assay: Anti-β effect: reduction of isoprenaline-induced acceleration of the heart rate in anesthetized atropinized dog; format: in vivo; parameters: key to Anti-β effect: +: for a reduction <50%; ++: for a reduction ≥50%; +++: for an almost complete reduction
Method: The aim of this test is to determine the capacity of the compounds of the invention to reduce the increase in blood pressure induced by epinephrine (anti-αeffect) and the acceleration of the heart rate induced by isoprenaline (anti-βeffect) in the dog previously anesthetized with pentobarbital and atropinized.
First, are determined for each dog the dose of epinephrine (between 3 and 10 μg/kg) which causes a reproducible increase in arterial blood pressure of about 133.10^2 Pa and the dose of isoprenaline (1 to 2 μg/kg) which causes a reproducible increase in the heart rate of about 70 beats/minute. The doses of epinephrine and isoprenaline thus determined are injected alternatively every ten minutes and after the two consecutive reference responses have been obtained, a quantity of the test compound is administered by the intravenous route.
The percentage reduction of the acceleration of the heart rate caused by the test compound compared with the reference tachycardia previously measured (about 70 beats) is recorded.
In both cases, the results of the reduction in arterial pressure and heart rate are expressed as follows: […]

SMILES	% maximal contractional effect ([1]; 10^-7 M, 0.1 µM)	% maximal contractional effect ([1]; 10^-8 M, 0.01 µM)	% maximal contractional effect ([1]; 10^-9 M, 0.001 µM)	% maximal contractional effect ([1]; 10^-10 M, 0.0001 µM)	Anti-α effect ([2]; intravenous, 0,035 mg/kg)	inhibition in vivo at 0.035 mg/kg ([3]; Canis lupus familiaris, intravenous, 0,035 mg/kg) [%]	Anti-α effect ([2]; intravenous, 1 mg/kg)	inhibition in vivo at 1 mg/kg ([3]; Canis lupus familiaris, intravenous, 1 mg/kg) [%]	Anti-α effect ([2]; intravenous, 0,1 mg/kg)	Anti-β effect ([3]; intravenous, 0,1 mg/kg)	Anti-α effect ([2]; intravenous, 0,05 mg/kg)	Anti-β effect ([3]; intravenous, 0,05 mg/kg)	Anti-α effect ([2]; intravenous, 0,013 mg/kg)	Anti-β effect ([3]; intravenous, 0,013 mg/kg)
COc1ccc2c(c1)c(C(C)C)c(S(=O)(=O)c1ccc(OCCCN(C)CCc3ccc(OC)c(OC)c3)cc1)n2C [Ex. 61, 2-{4-[3-(N-methyl N-3,4-dimethoxy-β-phenethylamino)propoxy]benzenesulfonyl} 3-isopropyl 5-methoxy 1-methyl indole hydrogen fumarate]	15,7%	31,2%	71,4%	89,5%	+++	≥ 50	–	–	–	–	–	–	–	–
COc1ccc2[nH]c(S(=O)(=O)c3ccc(OCCCN(C)CCc4ccc(OC)c(OC)c4)cc3)c(C(C)C)c2c1 [Ex. 62, 2-{4-[3-(N-methyl N-3,4-dimethoxy-β-phenethylamino)propoxy]benzenesulfonyl} 3-isopropyl 5-methoxy indole hydrogen oxalate]	37,1%	48,7%	93,7%	90,3%	–	–	+++	≥ 50	–	–	–	–	–	–
COc1ccc(CCN(C)CCCOc2ccc(S(=O)(=O)c3c(C(C)C)n(C)c4cccc(C)c34)cc2)cc1OC [Ex. 65, 3-{4-[3-(N-methyl N-3,4-dimethoxy-β-phenethylamino)propoxy]benzenesulfonyl} 2-isopropyl 1,4-dimethyl indole hydrogen oxalate]	14,3%	29,9%	76,1%	83,5%	–	–	–	–	+++	+++	–	–	–	–
CCCCN(CCCC)CCCOc1ccc(S(=O)(=O)c2c(C(C)C)n(C)c3cccc(C)c23)cc1.O=C(O)C(=O)O [Ex. 66, 3-{4-[3-(di-n-butylamino)propoxy]benzenesulfonyl} 2-isopropyl 1,4-dimethyl indole hydrogen oxalate]	7,1%	37,1%	83,1%	–	–	–	–	–	–	–	+++	+++	–	–
COc1cc(CCN(C)CCCOc2ccc(S(=O)(=O)c3c(C(C)C)cn4cccc(C)c34)cc2)cc(OC)c1 [Ex. 76, 1-{4-[3-(N-methyl N-3,5-dimethoxy-β-phenethylamino)propoxy]benzenesulfonyl} 2-isopropyl 8-methyl indolizine]	–	12,7%	41,8%	64,1%	–	–	–	–	–	–	–	–	+++	+++
